Counter-ions that a name gives are not always drawn. Like-named read-outs stand apart in the source and are kept apart here.
Biological target: T1, tankyrase 1 (Homo sapiens, UniProt O95271)
T1 construct: purchased Trevigen 4700-096-K
T1 sequence (O95271 1-1327): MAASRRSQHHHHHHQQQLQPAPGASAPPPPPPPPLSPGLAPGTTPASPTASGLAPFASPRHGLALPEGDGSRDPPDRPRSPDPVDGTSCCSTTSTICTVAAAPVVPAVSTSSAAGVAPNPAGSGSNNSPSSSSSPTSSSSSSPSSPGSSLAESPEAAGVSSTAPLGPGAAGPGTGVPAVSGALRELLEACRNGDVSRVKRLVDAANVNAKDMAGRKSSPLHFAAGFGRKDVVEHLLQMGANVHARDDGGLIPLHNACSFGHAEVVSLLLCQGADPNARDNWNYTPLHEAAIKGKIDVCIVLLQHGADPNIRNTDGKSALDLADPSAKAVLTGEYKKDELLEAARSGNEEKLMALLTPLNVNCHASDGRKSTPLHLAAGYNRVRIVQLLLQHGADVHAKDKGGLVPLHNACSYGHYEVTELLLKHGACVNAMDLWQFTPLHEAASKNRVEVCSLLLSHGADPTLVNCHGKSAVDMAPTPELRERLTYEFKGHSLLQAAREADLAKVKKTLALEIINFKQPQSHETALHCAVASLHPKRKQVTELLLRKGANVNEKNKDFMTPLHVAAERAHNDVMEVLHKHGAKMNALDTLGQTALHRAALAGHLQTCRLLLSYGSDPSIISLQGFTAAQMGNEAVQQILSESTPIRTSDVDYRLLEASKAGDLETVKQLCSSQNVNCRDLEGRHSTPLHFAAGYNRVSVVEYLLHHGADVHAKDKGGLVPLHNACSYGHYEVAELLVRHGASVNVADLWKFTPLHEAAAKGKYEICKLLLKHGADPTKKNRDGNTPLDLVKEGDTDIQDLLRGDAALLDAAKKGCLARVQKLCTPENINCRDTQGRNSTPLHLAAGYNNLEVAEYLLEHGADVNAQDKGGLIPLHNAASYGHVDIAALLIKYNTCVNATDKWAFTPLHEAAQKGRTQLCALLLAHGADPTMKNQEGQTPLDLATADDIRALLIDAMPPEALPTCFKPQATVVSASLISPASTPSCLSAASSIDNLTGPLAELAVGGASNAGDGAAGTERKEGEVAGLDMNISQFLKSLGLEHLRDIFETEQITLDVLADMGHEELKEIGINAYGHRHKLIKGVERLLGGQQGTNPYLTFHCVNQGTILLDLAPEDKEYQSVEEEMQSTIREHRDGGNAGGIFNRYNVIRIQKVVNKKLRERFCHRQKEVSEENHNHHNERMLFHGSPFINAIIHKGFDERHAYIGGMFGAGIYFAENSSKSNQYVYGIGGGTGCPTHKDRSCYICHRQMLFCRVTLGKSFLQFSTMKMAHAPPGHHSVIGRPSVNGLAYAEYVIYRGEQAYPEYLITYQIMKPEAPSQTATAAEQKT
Assay: Analysis of activity of tankyrase 1 (Trevigen kit, ELISA absorbance at 450 nm)
Assay type: biochemical
Method: Activities of novel compounds synthesized according to Examples 1 to 48 against tankyrase 1 were analyzed using a Trevigen kit (Cat. No. 4700-096-K). Poly PAR histone protein-coated 96-well plate, anti-PAR monoclonal antibody and goat anti-mouse IgG-HRP were used for measurement of absorbance by ELISA method. Specifically, 20× I-PAR assay buffer was diluted to 1× by adding water, and 50 μL of the diluted buffer was added to each well of the 96-well plate followed by reacting at rt for 30 min. Then, the supernatant was completely removed from each well and 10 μL of 1× I-PAR assay buffer and 15 μL of assay substrate were added to each well along with 1 μL of a 50× solution of inhibitors to be tested, which were the compounds obtained in the Examples 1 to 48. 10 m Units/μL of tankyrase 1 enzyme was diluted 50-fold with 1× I-PAR assay buffer and 25 μL of the diluted enzyme was added to each well and reacted while stirring at rt for 30 min. One without any compound of the present invention was used as a positive control and another containing 1× I-PAR assay buffer with the same volume instead of tankyrase 1 enzyme was used as a negative control. Upon completion of the reaction, 200 μL of PBSX, which was prepared by adding 0.1% triton X-100 to PBS, was added and removed and this washing process was repeated twice. Washing was repeated twice more using PBS in the same manner. 5× antibody diluent was diluted with distilled water to 1× concentration, 50 μL of the diluted goat anti-mouse IgG-HRP to 1/2000 was added to each well and reacted while stirring at rt for 30 min. Washes were carried out twice using PBSX and PBS, respectively. After addition of 50 μL of TACS-sapphire to each well of the plate, the plate was blocked from light to react for 10 min to 15 min and the color of the reaction solution turned blue. To stop the reaction, 50 μL of 0.2N HCl was added to turn the solution yellow. Finally, the absorbance of the resulting solution was measured at 450 nm.

[1] = Trevigen kit Cat. No. 4700-096-K, reaction at rt for 30 min, read-out: TNKS1 (IC50)

| SMILES | IC50 | IC50 [1] |
| --- | --- | --- |
| Cc1ncc2c(=O)[nH]c(N3CCN(c4ccccc4F)CC3)nn12 [compound 1, 2-(4-(2-Fluorophenyl)piperazin-1-yl)-7-methylimidazo[1,5-f][1,2,4]triazin-4(3H)-one] | 110 nM |  |
| COCCOc1cc(F)c(N2CCN(c3nn4c(C)ncc4c(=O)[nH]3)CC2)c(F)c1 [compound 2, 2-(4-(2,6-Difluoro-4-(2-methoxyethoxy)phenyl)piperazin-1-yl)-7-methylimidazo[1,5-f][1,2,4]triazin-4(3H)-one] | 31.8 nM |  |
| Cc1ncc2c(=O)[nH]c(N3CCN(c4c(F)cc(OCc5ccccc5)cc4F)CC3)nn12 [compound 3, 2-(4-(4-(Benzyloxy)-2,6-difluorophenyl)piperazin-1-yl)-7-methylimidazo[1,5-f][1,2,4]triazin-4(3H)-one] |  | 494 nM |
| Cc1ncc2c(=O)[nH]c(N3CCN(c4c(F)cc(OCCN5CCOCC5)cc4F)CC3)nn12 [compound 4, 2-(4-(2,6-Difluoro-4-(2-morpholinoethoxy)phenyl)piperazin-1-yl)-7-methylimidazo[1,5-f][1,2,4]triazin-4(3H)-one] |  | 32.3 nM |
| Cc1ncc2c(=O)[nH]c(N3CCN(c4c(F)cc(OCCN5CCCCC5)cc4F)CC3)nn12 [compound 5, 2-(4-(2,6-Difluoro-4-(2-(piperidin-1-yl)ethoxy)phenyl)piperazin-1-yl)-7-methylimidazo[1,5-f][1,2,4]triazin-4(3H)-one] |  | 25.2 nM |
| Cc1ncc2c(=O)[nH]c(N3CCN(c4c(F)cc(OCCN(C)C)cc4F)CC3)nn12 [compound 6, 2-(4-(4-(2-(Dimethylamino)ethoxy)-2,6-difluorophenyl)piperazin-1-yl)-7-methylimidazo[1,5-f][1,2,4]triazin-4(3H)-one] |  | 19.6 nM |
| Cc1ncc2c(=O)[nH]c(N3CCN(c4c(F)cc(OCCO)cc4F)CC3)nn12 [compound 7, 2-(4-(2,6-Difluoro-4-(2-hydroxyethoxy)phenyl)piperazin-1-yl)-7-methylimidazo[1,5-f][1,2,4]triazin-4(3H)-one] |  | 38.7 nM |
| Cc1ncc2c(=O)[nH]c(N3CCN(c4c(F)cc(OCCOC(=O)[C@H](C)N)cc4F)CC3)nn12 [compound 8, (S)-2-(3,5-Difluoro-4-(4-(7-methyl-4-oxo-3,4-dihydroimidazo[1,5-f][1,2,4]triazin-2-yl)piperazin-1-yl)phenoxy)ethyl 2-aminopropionate hydrochloride] |  | 43.6 nM |
| Cc1ncc2c(=O)[nH]c(N3CCN(c4c(F)cc(OCC(O)CO)cc4F)CC3)nn12 (stereo not shown) [compound 9, 2-(4-(4-(2,3-Dihydroxypropoxy)-2,6-difluorophenyl)piperazin-1-yl)-7-methylimidazo[1,5-f][1,2,4]triazin-4(3H)-one] |  | 79.5 nM |
| Cc1ncc2c(=O)[nH]c(N3CCN(c4c(F)cc(CN5CCOCC5)cc4F)CC3)nn12 [compound 10, 2-(4-(2,6-Difluoro-4-(morpholinomethyl)phenyl)piperazin-1-yl)-7-methylimidazo[1,5-f][1,2,4]triazin-4(3H)-one] |  | 48.8 nM |
| Cc1ncc2c(=O)[nH]c(N3CCN(c4c(F)cc(CN5CCN(C)CC5)cc4F)CC3)nn12 [compound 11, 2-(4-(2,6-Difluoro-4-((4-methylpiperazin-1-yl)methyl)phenyl)piperazin-1-yl)-7-methylimidazo[1,5-f][1,2,4]triazin-4(3H)-one] |  | 44.1 nM |
| Cc1ncc2c(=O)[nH]c(N3CCN(c4c(F)cc(OC5COC5)cc4F)CC3)nn12 [compound 12, 2-(4-(2,6-Difluoro-4-(oxetan-3-yloxy)phenyl)piperazin-1-yl)-7-methylimidazo[1,5-f][1,2,4]triazin-4(3H)-one] | 96.3 nM |  |
| Cc1ncc2c(=O)[nH]c(N3CCN(c4c(F)cc(C(C)O)cc4F)CC3)nn12 (stereo not shown) [compound 13, 2-(4-(2,6-Difluoro-4-(1-hydroxyethyl)phenyl)piperazin-1-yl)-7-methylimidazo[1,5-f][1,2,4]triazin-4(3H)-one] |  | 45.7 nM |
| COC(C)c1cc(F)c(N2CCN(c3nn4c(C)ncc4c(=O)[nH]3)CC2)c(F)c1 (stereo not shown) [compound 14, 2-(4-(2,6-Difluoro-4-(1-methoxyethyl)phenyl)piperazin-1-yl)-7-methylimidazo[1,5-f][1,2,4]triazin-4(3H)-one] |  | 69.2 nM |
| Cc1ncc2c(=O)[nH]c(N3CCN(c4c(F)cccc4F)CC3)nn12 [compound 15, 2-(4-(2,6-Difluorophenyl)piperazin-1-yl)-7-methylimidazo[1,5-f][1,2,4]triazin-4(3H)-one] | 17.9 nM |  |
| COCCOc1cc(F)c(C2(O)CCN(c3nn4c(C)ncc4c(=O)[nH]3)CC2)c(F)c1 [compound 17, 2-(4-(2,6-Difluoro-4-(2-methoxyethoxy)phenyl)-4-hydroxypiperidin-1-yl)-7-methylimidazo[5,1-f][1,2,4]triazin-4(3H)-one] |  | 67.2 nM |
| COCCN(C)Cc1cc(F)c(N2CCN(c3nn4c(C)ncc4c(=O)[nH]3)CC2)c(F)c1 [compound 19, 2-(4-(2,6-Difluoro-4-(((2-methoxyethyl)(methyl)amino)methyl)phenyl)piperazin-1-yl)-7-methylimidazo[1,5-f][1,2,4]triazin-4(3H)-one] |  | 102 nM |
| Cc1ncc2c(=O)[nH]c(N3CCN(c4c(F)cc(OCCN5CCCC5)cc4F)CC3)nn12 [compound 24, 2-(4-(2,6-Difluoro-4-(2-(pyrrolidin-1-yl)ethoxy)phenyl)piperazin-1-yl)-7-methylimidazo[1,5-f][1,2,4]triazin-4(3H)-one] |  | 93.4 nM |
| Cc1ncc2c(=O)[nH]c(N3CCN(c4c(F)cc(OCCN5CCN(C)CC5)cc4F)CC3)nn12 [compound 25, 2-(4-(2,6-Difluoro-4-(2-(4-methylpiperazin-1-yl)ethoxy)phenyl)piperazin-1-yl)-7-methylimidazo[1,5-f][1,2,4]triazin-4(3H)-one] |  | 69.9 nM |
| Cc1ncc2c(=O)[nH]c(N3CCN(c4c(F)cc(OCC(=O)N5CCCCC5)cc4F)CC3)nn12 [compound 28, 2-(4-(2,6-Difluoro-4-(2-oxo-2-(piperidin-1-yl)ethoxy)phenyl)piperazin-1-yl)-7-methylimidazo[1,5-f][1,2,4]triazin-4(3H)-one] |  | 63.1 nM |
| Cc1ncc2c(=O)[nH]c(N3CCN(c4c(F)cc(OCC(=O)N5CCCC5)cc4F)CC3)nn12 [compound 29, 2-(4-(2,6-Difluoro-4-(2-oxo-2-(pyrrolidin-1-yl)ethoxy)phenyl)piperazin-1-yl)-7-methylimidazo[1,5-f][1,2,4]triazin-4(3H)-one] |  | 84.8 nM |
| Cc1ncc2c(=O)[nH]c(N3CCN(c4c(F)cc(OCCN=[N+]=[N-])cc4F)CC3)nn12 [compound 31, 2-(4-(4-(2-Azidoethoxy)-2,6-difluorophenyl)piperazin-1-yl)-7-methylimidazo[1,5-f][1,2,4]triazin-4(3H)-one] |  | 171 nM |
